According to patent US20160067221A1, “USE OF ERGOTHIONEINE FOR INDUCING ACTIVITY OF NRF2 IN CELL” (China Medical University, priority 2014, published 2016):

Tested on: UVA-irradiated HaCaT cells
Assay: LDH release (UVA-induced cell membrane damage)
Type: cell-based, human
Settings: 125, 250, 500 nM 24 hours, then 15 J/cm^2 UVA, 4 hours
Description: Under normal physiological condition, a lactate dehydrogenase (LDH) is presented in the cytoplasm. The cell membranes are damaged or disrupted when the cells are attacked by excessive ROS. Accordingly, the intracellular LDH releases into the culture medium. Therefore, a detection amount of LDH release is an indicator of a cell membrane damaged condition. The HaCaT cells are seeded in a 12-well plate with 1×10^5 cells/well and then maintained at 37° C. in the humidified atmosphere of 5% CO2 until the HaCaT cells are adhered in the next day. […] After incubation, the HaCaT cells are washed with PBS three times and resuspended in fresh phenol red-free DMEM supplemented with 10% FBS. Then, the HaCaT cells are exposed to the UVA (15 J/cm^2) for 4 hours. The culture medium is taken from the well, and then centrifuged at 400×g for 5 minutes by using a high speed centrifuge. After the centrifugation, 50 μL of the supernatant is taken and added into the 96-well microplate, and the 50 μL of a substrate mixture is added in each well to act at room temperature for 20 minutes in the dark. Then, 50 μl. of a stopping solution (1N HCl) is added in each well to stop the reaction, and then the absorbance at 490 nm is measured.

## C[N+](C)(C)[C@@H](Cc1c[nH]c(=S)[nH]1)C(=O)[O-] [ergothioneine, 2-mercapto histidine trimethylbetain]
  LDH release: inhibits the LDH release in a dose-dependent manner
